{"source": "patent US20060116369A1", "about": "“Certain compounds, compositions, and methods” (priority 2004, published 2006)", "origin": "cited, not measured here"}
{"tested_on": "A549 cells", "conditions": "data provided by National Cancer Institute, Developmental Therapeutic Program", "units": {"GI50": "nM"}}
{"smiles": "O=c1[nH]cc(F)c(=O)[nH]1", "note": "[5-fluorouracil]", "GI50": 1000}
{"smiles": "COc1cccc2c1C(=O)c1c(O)c3c(c(O)c1C2=O)C[C@@](O)(C(=O)CO)C[C@@H]3O[C@H]1C[C@H](N)[C@H](O)[C@H](C)O1", "note": "[doxorubicin]", "GI50": 63}
{"smiles": "NC(=O)NO", "note": "[hydroxyurea]", "GI50": 500000}
{"smiles": "CC(=O)O[C@H]1C(=O)[C@@]2(C)[C@H]([C@H](OC(=O)c3ccccc3)[C@]3(O)C[C@H](OC(=O)[C@H](O)[C@@H](NC(=O)c4ccccc4)c4ccccc4)C(C)=C1C3(C)C)[C@]1(OC(C)=O)CO[C@@H]1C[C@@H]2O", "note": "[paclitaxel]", "GI50": 4}
